Measured values published in patent US9855259B2, “Processes of making and crystalline forms of a MDM2 inhibitor” (AMGEN INC., priority 2013, dated 2018).
Counter-ions that a name gives are not always drawn.

Assay: room-temperature solubility in toluene
Type: physicochemical
Settings: organic solvent or mixture, 1-naphthalene sulfonate counterion

solubility: < 10000 µg/mL
SMILES: C=CC[C@@]1(C)C[C@H](c2cccc(Cl)c2)[C@@H](c2ccc(Cl)cc2)[N+]2=C1OC[C@@H]2C(C)C [oxoiminium salt, (3S,5S,6R,8S)-8-Allyl-6-(3-chlorophenyl)-5-(4-chlorophenyl)-3-isopropyl-8-methyl-2,3,5,6,7,8-hexahydrooxazolo[3,2-a]pyridin-4-ium naphthalene-1-sulfonate]
